Measurements: ChEMBL document CHEMBL1201862, “PubChem BioAssay data set” (2004)
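Protocol summary: plate cells (96-well), add compound at 5 concentrations, incubate 48 h, interpolate endpoints linearly. Here, GI50 denotes the concentration required for 50% inhibition of growth.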 Active and inactive are the calls of the source. Rule as the data show it: active = GI50 up to about 1.1 µM and inactive = higher.

Experiments:
Assay in all cases: NCI-60 cell line screen, 48 h
786-0 = system: 786-0
A498 = system: A498
A549 = system: A549
ACHN = system: ACHN
BT-549 = system: BT-549
CAKI-1 = system: CAKI-1
CCRF-CEM = system: CCRF-CEM
COLO 205 = system: COLO 205
DU-145 = system: DU-145
EKVX = system: EKVX
HCC 2998 = system: HCC 2998
HCT-116 = system: HCT-116
HCT-15 = system: HCT-15
HL-60 = system: HL-60
HOP-62 = system: HOP-62
HOP-92 = system: HOP-92
HT-29 = system: HT-29
Hs-578T = system: Hs-578T
IGROV-1 = system: IGROV-1
K562 = system: K562
KM12 = system: KM12
LOX IMVI = system: LOX IMVI
M14 = system: M14
MCF7 = system: MCF7
MDA-MB-231 = system: MDA-MB-231
MDA-MB-435 = system: MDA-MB-435
MDA-N = system: MDA-N
MOLT-4 = system: MOLT-4
Malme-3M = system: Malme-3M
NCI-H226 = system: NCI-H226
NCI-H23 = system: NCI-H23
NCI-H460 = system: NCI-H460
NCI-H522 = system: NCI-H522
NCI/ADR-RES = system: NCI/ADR-RES
OVCAR-3 = system: OVCAR-3
OVCAR-4 = system: OVCAR-4
OVCAR-5 = system: OVCAR-5
OVCAR-8 = system: OVCAR-8
PC-3 = system: PC-3
RPMI-8226 = system: RPMI-8226
RXF 393 = system: RXF 393
SF-268 = system: SF-268
SF-295 = system: SF-295
SF-539 = system: SF-539
SK-MEL-28 = system: SK-MEL-28
SK-MEL-2 = system: SK-MEL-2
SK-MEL-5 = system: SK-MEL-5
SK-OV-3 = system: SK-OV-3
SN12C = system: SN12C
SNB-19 = system: SNB-19
SNB-75 = system: SNB-75
SR = system: SR
SW-620 = system: SW-620
T47D = system: T47D
TK-10 = system: TK-10
U-251 = system: U-251
UACC-257 = system: UACC-257
UACC-62 = system: UACC-62
UO-31 = system: UO-31

`CCCN(CCCCN1C(=O)c2ccccc2C1=O)CC1COc2ccccc2O1` (stereo unspecified) was tested, and the GI50 (786-0) was > 100 µM (inactive), the GI50 (A498) was > 100 µM (inactive) and the GI50 (A549) was > 100 µM (inactive). The GI50 (ACHN) was > 100 µM (inactive), the GI50 (BT-549) was > 100 µM (inactive) and the GI50 (CAKI-1) was > 100 µM (inactive). The GI50 (CCRF-CEM) was 25.8 µM (inactive), the GI50 (COLO 205) was 50.1 µM (inactive) and the GI50 (DU-145) was > 100 µM (inactive). The GI50 (EKVX) was > 100 µM (inactive), the GI50 (HCC 2998) was 83.2 µM (inactive) and the GI50 (HCT-116) was 59.4 µM (inactive). For the same compound, the GI50 (HCT-15) was 52.2 µM, the GI50 (HL-60) was 14.1 µM (inactive) and the GI50 (HOP-62) was > 100 µM (inactive). For the same compound, the GI50 (HOP-92) was 29.4 µM (inactive), the GI50 (HT-29) was 33.6 µM (inactive) and the GI50 (Hs-578T) was > 100 µM (inactive). For the same compound, the GI50 (IGROV-1) was > 100 µM (inactive), the GI50 (K562) was 42.1 µM (inactive) and the GI50 (KM12) was > 100 µM (inactive). The GI50 (LOX IMVI) was > 100 µM (inactive), the GI50 (M14) was > 100 µM (inactive) and the GI50 (MCF7) was 53.1 µM (inactive). The GI50 (MDA-MB-231) was > 100 µM (inactive), the GI50 (MDA-MB-435) was > 100 µM (inactive) and the GI50 (MDA-N) was > 100 µM (inactive). For the same compound, the GI50 (MOLT-4) was 23.3 µM (inactive), the GI50 (Malme-3M) was > 100 µM (inactive) and the GI50 (NCI-H226) was 53 µM (inactive). For the same compound, the GI50 (NCI-H23) was 55.3 µM (inactive), the GI50 (NCI-H460) was 53.5 µM (inactive) and the GI50 (NCI-H522) was > 100 µM (inactive). The GI50 (NCI/ADR-RES) was 61.1 µM (inactive), the GI50 (OVCAR-3) was > 100 µM (inactive) and the GI50 (OVCAR-4) was > 100 µM (inactive). For the same compound, the GI50 (OVCAR-5) was > 100 µM (inactive), the GI50 (OVCAR-8) was > 100 µM (inactive) and the GI50 (PC-3) was 51.9 µM (inactive). For the same compound, the GI50 (RPMI-8226) was 26.4 µM (inactive), the GI50 (RXF 393) was 94.4 µM (inactive) and the GI50 (SF-268) was > 100 µM (inactive). The GI50 (SF-295) was > 100 µM (inactive), the GI50 (SF-539) was 83.2 µM (inactive) and the GI50 (SK-MEL-28) was 88.5 µM (inactive). The GI50 (SK-MEL-2) was > 100 µM (inactive), the GI50 (SK-MEL-5) was 28.6 µM (inactive) and the GI50 (SK-OV-3) was > 100 µM (inactive). The GI50 (SN12C) was > 100 µM (inactive), the GI50 (SNB-19) was > 100 µM (inactive) and the GI50 (SNB-75) was > 100 µM (inactive). The GI50 (SR) was 25.1 µM (inactive), the GI50 (SW-620) was > 100 µM (inactive) and the GI50 (T47D) was 42.9 µM (inactive). For the same compound, the GI50 (TK-10) was > 100 µM (inactive), the GI50 (U-251) was 74 µM (inactive) and the GI50 (UACC-257) was 65.9 µM (inactive). For the same compound, the GI50 (UACC-62) was > 100 µM (inactive) and the GI50 (UO-31) was 51.9 µM (inactive).

In the case of `O=C(c1ccccc1)c1ccc2nc3n(c2c1)C(c1c(F)cccc1F)SC3` (stereo unspecified), the GI50 (786-0) is reported as 4.2 µM (inactive), the GI50 (A498) is reported as 3.7 µM (inactive) and the GI50 (A549) is reported as 4.79 µM (inactive). For the same compound, the GI50 (ACHN) was 3.85 µM (inactive), the GI50 (BT-549) was 17.3 µM (inactive) and the GI50 (CAKI-1) was 5.13 µM (inactive). For the same compound, the GI50 (CCRF-CEM) was 4.76 µM (inactive), the GI50 (COLO 205) was 4 µM (inactive) and the GI50 (DU-145) was 11.3 µM (inactive). For the same compound, the GI50 (EKVX) was 3.56 µM (inactive), the GI50 (HCC 2998) was 5.25 µM (inactive) and the GI50 (HCT-116) was 3.26 µM (inactive). The GI50 (HCT-15) was 3.16 µM, the GI50 (HL-60) was 2.03 µM (inactive) and the GI50 (HOP-62) was 8.81 µM (inactive). The GI50 (HOP-92) was 10.9 µM (inactive), the GI50 (HT-29) was 4.93 µM (inactive) and the GI50 (Hs-578T) was 8.55 µM (inactive). The GI50 (IGROV-1) was 5.05 µM (inactive), the GI50 (K562) was 3.31 µM (inactive) and the GI50 (KM12) was 2.82 µM (inactive). For the same compound, the GI50 (LOX IMVI) was 6.11 µM (inactive), the GI50 (M14) was 3.46 µM (inactive) and the GI50 (MCF7) was 3.85 µM (inactive). For the same compound, the GI50 (MDA-MB-231) was 12.9 µM (inactive), the GI50 (MDA-MB-435) was 1.45 µM (inactive) and the GI50 (MDA-N) was 1.34 µM (inactive). The GI50 (MOLT-4) was 2.74 µM (inactive), the GI50 (Malme-3M) was 5.68 µM (inactive) and the GI50 (NCI-H226) was 30.6 µM (inactive). The GI50 (NCI-H23) was 9.4 µM (inactive), the GI50 (NCI-H460) was 3.98 µM (inactive) and the GI50 (NCI-H522) was 2.01 µM (inactive). For the same compound, the GI50 (NCI/ADR-RES) was 2.99 µM (inactive), the GI50 (OVCAR-3) was 4.9 µM (inactive) and the GI50 (OVCAR-4) was 7.8 µM (inactive). The GI50 (OVCAR-5) was 5.74 µM (inactive), the GI50 (OVCAR-8) was 9.33 µM (inactive) and the GI50 (PC-3) was 6.89 µM (inactive). The GI50 (RPMI-8226) was 4.62 µM (inactive), the GI50 (RXF 393) was 13.2 µM (inactive) and the GI50 (SF-268) was 9.66 µM (inactive). For the same compound, the GI50 (SF-295) was 3.2 µM (inactive), the GI50 (SF-539) was 10.3 µM (inactive) and the GI50 (SK-MEL-28) was 22.3 µM (inactive). For the same compound, the GI50 (SK-MEL-2) was 8.3 µM (inactive), the GI50 (SK-MEL-5) was 4.08 µM (inactive) and the GI50 (SK-OV-3) was 4.1 µM (inactive). For the same compound, the GI50 (SN12C) was 7.69 µM (inactive), the GI50 (SNB-19) was 4.98 µM (inactive) and the GI50 (SNB-75) was 4.17 µM (inactive). For the same compound, the GI50 (SR) was 0.847 µM (active), the GI50 (SW-620) was 3.18 µM (inactive) and the GI50 (T47D) was 4.49 µM (inactive). For the same compound, the GI50 (TK-10) was 22.9 µM (inactive), the GI50 (U-251) was 6.67 µM (inactive) and the GI50 (UACC-257) was 18.1 µM (inactive). The GI50 (UACC-62) was 4.47 µM (inactive) and the GI50 (UO-31) was 5.4 µM (inactive).

In the case of `CCN(CC)C1C(=O)NC1C#Cc1ccccc1` (stereo unspecified), the GI50 (786-0) is reported as > 100 µM (inactive), the GI50 (A498) is reported as > 100 µM (inactive) and the GI50 (ACHN) is reported as > 100 µM (inactive). The GI50 (BT-549) was 61.9 µM (inactive), the GI50 (CAKI-1) was 38.4 µM (inactive) and the GI50 (CCRF-CEM) was 32 µM (inactive). The GI50 (COLO 205) was > 100 µM (inactive), the GI50 (DU-145) was > 100 µM (inactive) and the GI50 (EKVX) was > 100 µM (inactive). For the same compound, the GI50 (HCC 2998) was > 100 µM (inactive), the GI50 (HCT-116) was > 100 µM (inactive) and the GI50 (HCT-15) was 96.6 µM. For the same compound, the GI50 (HL-60) was 36.6 µM (inactive), the GI50 (HOP-62) was > 100 µM (inactive) and the GI50 (HOP-92) was 18.9 µM (inactive). For the same compound, the GI50 (HT-29) was 48 µM (inactive), the GI50 (Hs-578T) was > 100 µM (inactive) and the GI50 (IGROV-1) was 67.5 µM (inactive). For the same compound, the GI50 (K562) was 42.3 µM (inactive), the GI50 (KM12) was > 100 µM (inactive) and the GI50 (LOX IMVI) was 39.7 µM (inactive). The GI50 (M14) was > 100 µM (inactive), the GI50 (MCF7) was 49.2 µM (inactive) and the GI50 (MDA-MB-231) was > 100 µM (inactive). The GI50 (MDA-MB-435) was 40.8 µM (inactive), the GI50 (MDA-N) was 57.3 µM (inactive) and the GI50 (MOLT-4) was > 10 µM (inactive). The GI50 (Malme-3M) was 98.4 µM (inactive), the GI50 (NCI-H226) was > 100 µM (inactive) and the GI50 (NCI-H23) was 71.4 µM (inactive). For the same compound, the GI50 (NCI-H460) was > 100 µM (inactive), the GI50 (NCI-H522) was 25 µM (inactive) and the GI50 (NCI/ADR-RES) was > 100 µM (inactive). The GI50 (OVCAR-3) was > 100 µM (inactive), the GI50 (OVCAR-4) was > 100 µM (inactive) and the GI50 (OVCAR-5) was > 100 µM (inactive). For the same compound, the GI50 (OVCAR-8) was > 100 µM (inactive), the GI50 (PC-3) was > 100 µM (inactive) and the GI50 (RPMI-8226) was 76.7 µM (inactive). The GI50 (RXF 393) was > 100 µM (inactive), the GI50 (SF-268) was > 100 µM (inactive) and the GI50 (SF-295) was > 100 µM (inactive). For the same compound, the GI50 (SF-539) was > 100 µM (inactive), the GI50 (SK-MEL-28) was > 100 µM (inactive) and the GI50 (SK-MEL-2) was > 100 µM (inactive). The GI50 (SK-MEL-5) was 26.4 µM (inactive), the GI50 (SK-OV-3) was > 100 µM (inactive) and the GI50 (SN12C) was > 100 µM (inactive). For the same compound, the GI50 (SNB-19) was > 100 µM (inactive), the GI50 (SNB-75) was > 100 µM (inactive) and the GI50 (SR) was 32 µM (inactive). For the same compound, the GI50 (SW-620) was 69.5 µM (inactive), the GI50 (T47D) was 84.7 µM (inactive) and the GI50 (TK-10) was > 100 µM (inactive). The GI50 (U-251) was > 100 µM (inactive), the GI50 (UACC-257) was > 100 µM (inactive) and the GI50 (UACC-62) was > 100 µM (inactive). The GI50 (UO-31) was > 100 µM (inactive).
